The values that follow come from PubChem BioAssay (NCI).

Common to all, as to assay: inhibition of tumour cell growth, NCI panel, 48 h
The subject of assay [1] is CAKI-1 renal.
Assay [2] has as its system DU-145 prostate.
Assay [3] concerns HT29 colon.
The test system of assay [4] is M14 melanoma.
The test system of assay [5] is NCI-H460 lung.
Assay [6] concerns PC-3 prostate.
In assay [7] the test system is SF-295 CNS.
Assay [8] has as its system SR leukemia.
The subject of assay [9] is MCF7 breast.
The test system of assay [10] is HCC-2998 colon.

Several values for one entry are separate records, joined by “and”; a condition that tells them apart may be missing. Identical values can stand only once.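 Briefly, cells in 96-well plates were exposed to five compound concentrations for 48 h, and endpoints were estimated by linear interpolation. Here, GI50 denotes the concentration required for 50% inhibition of growth. TGI: concentration producing complete growth inhibition.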 *1 amine or outer side, *2 acyl side, *3 side chain or, on linkers, in order; H or OH if unused. Where a SMILES comes first, the peptide text is derived from it. [ ]: non-standard residue; d: D form. The star is where a group is joined. X12 = NCCCCC(N[*:1])C(=O)CN1CCCC1C(=O)[*:2]; Pentadecanoyl = CCCCCCCCCCCCCCC(=O)* Bounds are passed on as bounds.

Regarding `Cc1cnc2cc(Cl)ccc2c1SCC(=O)O`, the TGI in assay [1], in [2], in assay [3], in [4], in assay [5] and in [6] was over 100 µM throughout. Also, the TGI in assay [7] and in [8] was over 100 µM each time.

Turning to `O=c1[nH]c(=O)c2c([nH]1)[nH]c1ccccc12`, the TGI in assay [1], in [2], in assay [3], in [4], in assay [9] and in assay [7] was over 100 µM each time. Further, the TGI in assay [8] was over 100 µM.

Take `CC1[C@@H]2C[C@@H]3O[C@@]34[C@H]3CCC5Cc6nc7c(nc6C[C@@]5(C)C3(O)CC(=O)[C@@]24CO[C@]12OC(C)(C)CC2O)CC1CC[C@@H]2C3=C[C@H]4O[C@@]5(O[C@@](C)(CO)C[C@@H]5O)C(C)[C@@]4(O)[C@]3(C)[C@@H](O)CC2[C@]1(C)C7` (stereo partly drawn): the TGI in assay [1] is over 3.52 µM; in [10] it was over 3.52 µM; in assay [3] it was 0.0945 µM; in [9] it was over 3.52 µM; in assay [5], 0.479 µM; in assay [7] it was 0.0164 µM.

Take `CC1=CCC(=O)[C@]2(C)C(CC(=O)O)[C@]3(C)C4=C(C)C(c5ccoc5)C[C@@H]4O[C@@H]3[C@H](O)[C@@H]12` (stereo partly drawn): the TGI in assay [1], in assay [2], in [10], in [4], in [9] and in [5] was over 100 µM throughout. Moreover, the TGI in assay [6] and in assay [7] was over 100 µM in each case.

In the case of `O=c1cc(-c2ccccc2)[nH]c2c(F)ccc(F)c12`, the TGI in assay [1] was over 100 µM; in [3], over 100 µM; in assay [4], over 100 µM; in assay [5], over 100 µM; in assay [7] it was over 100 µM; in assay [8] it was 90.3 µM.

Regarding `O=C(c1cccs1)N(C(=O)N1CCCCC1)c1ccccc1`, the TGI in assay [1], in assay [2], in assay [3], in assay [4], in [9] and in assay [6] was over 100 µM throughout. The compound further returned a TGI in [7] of over 100 µM.

Consider `NS(=O)(=O)c1ccc(NS(=O)(=O)c2ccc(NC(=O)N(c3ccccc3)c3ccccc3)cc2)cc1`, for which the TGI in assay [1], in assay [2], in assay [3], in assay [4], in assay [9] and in [5] was over 100 µM in each case. Also, the TGI in assay [6] and in [7] was over 100 µM throughout.

On to `CCCCCCCCCCCCCCC(=O)NC(CCCCN)C(=O)CN1CCCC1C(=O)NCC(=O)NC(Cc1ccccc1)C(=O)N1CCCC1C(=O)NC(CO)C(=O)NC(Cc1ccc(O)cc1)C(=O)NC(CCCCN)C(=O)NC(CC(C)C)C(=O)NC(CCCN=C(N)N)C(=O)N1CCCC1C(=O)NCC(N)=O` (stereo not drawn) (Pentadecanoyl-[X12]GFPSYKLRPG-NH2; configuration not given here), for which the GI50 is 20.6 µM in assay [1]; 24.1 µM in assay [2]; 17.7 µM in [10]; 36.9 µM in assay [3]; 19.2 µM in assay [4]; 27.6 µM in assay [9]. Besides, the GI50 in [5] is 28.3 µM; in assay [7] it was 26.2 µM; in assay [8], 16.2 µM. The TGI in assay [1] was 48.7 µM; in [2], 53.8 µM; in assay [10], 35.2 µM; in assay [3], over 100 µM; in [4], 39.8 µM; in [9], 61.3 µM. Moreover, the TGI stood at 83.7 µM in assay [5], 57.3 µM in assay [7] and 50.8 µM in assay [8].

On to `Oc1[nH]c2ccccc2c1N=NC(=S)NCc1ccccn1`, for which the TGI in assay [1] is 11.7 µM; in assay [2] it was 12.7 µM; in assay [10], 16.5 µM; in assay [3], over 43 µM; in assay [4], 4.89 µM; in assay [9], 14.1 µM. Also, the values for the TGI in assay [5], in assay [6] and in [7] were 11.4 µM, 17.5 µM and 18 µM, respectively.

As for `COc1cccc2c1C(=O)c1c(O)c3c(c(O)c1C2=O)C[C@@](O)(C(=O)CO)CC3OC1CC(NCCCCC(OC(C)=O)OC(C)=O)C(O)C(C)O1` (stereo partly drawn), the TGI in [1] is 0.00812 µM; in assay [10], 0.00495 µM and 0.00577 µM; in assay [3], 0.0125 µM; in assay [4] it was 0.00458 µM and 0.00549 µM; in assay [5] it was 0.319 µM; in [7], 0.0335 µM. The compound also gave a TGI in assay [8] of 0.0027 µM. Also, the GI50 in [3] was 0.00103 µM; in [4], 0.0011 µM; in assay [7], 0.00227 µM.

In the case of `c1ccc(C2C3=C(CCCC3)Nc3nnnn32)cc1` (stereo not drawn), the TGI in assay [1], in [2], in assay [4], in assay [9], in assay [5] and in [6] was over 100 µM throughout. The TGI in [7] and in assay [8] was over 100 µM in each case.

As for `CN(C)CCSc1nccc(-c2ccc(-c3ccnc(SCCN(C)C)n3)s2)n1`, the TGI in assay [1] came to 33.1 µM; in [10], 18.6 µM; in [3] it was 10.3 µM; in assay [9], 16.9 µM; in [5], 9.86 µM; in [7] it was 26 µM.

Consider `N#Cc1nc(C(=O)c2ccccc2)oc1N`, for which the TGI in [1], in assay [2], in [3], in [4], in [9] and in assay [6] was over 100 µM each time.

As for `C/C(=N/OCCC(=O)O)C1CC1`, the TGI in assay [1], in assay [10], in [3], in assay [4], in assay [5] and in assay [7] was over 100 µM in each case. In assay [8], the TGI was over 100 µM.

Take `COc1ccc(OC)c([N+](=O)[O-])c1-c1nc2sc(C)cn2c1/C=N/N=C(N)N`: the TGI in [1] is 84.1 µM; in [2] it was over 100 µM; in assay [10], 60.3 µM; in assay [3], 50.1 µM; in assay [4], over 100 µM; in assay [9] it was over 100 µM. Moreover, the TGI in assay [5] was over 100 µM; in assay [6], over 100 µM; in assay [7] it was 57.1 µM.
